Test [1] has as its system isolated G cells. In words: Gastrin release from isolated G cells. As to conditions: for EC50: read-out: EC50, stimulation of gastrin release. It is filed as cell-based. How it is done: (§1) The effect of the ovarian hormone, estrogen on G cell function was evaluated.
For test [2], the system named is isolated G cells. Put plainly: cAMP production in isolated G cells. Format: cell-based. As to the method: as §1
Test [3] has as its system MAPK phosphorylation in G cells. Put plainly: MAPK phosphorylation in G cells. It is filed as cell-based. Particulars: preincubation.
For a further test, the system named is G cells. Put plainly: Calcium influx in G cells (flow cytometry, FITC shift). It is filed as cell-based. Particulars: CaCl2 4 mM.
Another test has as its system isolated rodent G cells. Particulars: for EC50: read-out: Calcium (EC50); for IC50: read-out: OCTR (IC50). From the text:
This animal has been extensively studied as a model of gastric acid pathophysiology relevant to long-term pharmacological inhibition of acid secretion (low acid state pathobiology).

A further test deals with PTH chief cells. Particulars: read-out: EC50, stimulation of PTH release; human PTH chief cells.
Another test addresses T1, CCK2 receptor (Homo sapiens, UniProt P32239).
T1 construct: Gastrin stimulated both cAMP as well as calcitonin release from the well-differentiated human MTC cell line, MTC-SK; endogenous in cells; host or cells: MTC-SK (human medullary thyroid carcinoma cell line)
T1 sequence (P32239 1-447): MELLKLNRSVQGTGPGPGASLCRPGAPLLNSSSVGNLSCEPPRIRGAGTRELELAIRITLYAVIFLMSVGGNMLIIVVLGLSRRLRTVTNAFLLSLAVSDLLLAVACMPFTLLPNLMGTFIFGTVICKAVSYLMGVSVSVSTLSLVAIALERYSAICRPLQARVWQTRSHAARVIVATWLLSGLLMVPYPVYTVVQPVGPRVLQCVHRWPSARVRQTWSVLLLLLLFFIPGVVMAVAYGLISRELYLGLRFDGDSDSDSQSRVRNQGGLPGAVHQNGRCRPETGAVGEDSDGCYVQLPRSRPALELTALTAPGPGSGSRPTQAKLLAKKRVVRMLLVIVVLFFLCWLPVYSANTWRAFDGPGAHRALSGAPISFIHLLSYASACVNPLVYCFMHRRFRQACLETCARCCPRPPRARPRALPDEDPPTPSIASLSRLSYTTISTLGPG
Put plainly: Gastrin-stimulated cAMP production and calcitonin release/transcription in MTC-SK cells. It is filed as cell-based. As to conditions: H-89 10 μM preincubation. Background: Changes in cAMP serve as a functional read-out for many G protein-coupled receptors.

Test [4] concerns isolated G cells. In words: Gastrin release from isolated G cells. Format: cell-based. As to conditions: for effect on CaCl2-mediated gastrin release: nifedipine 1 μm (preincubation 10 mins), H-89 10 μM, PD98059 0.1 μM, wortmannin 1 nM.
A short description of test [5]: Plasma gastrin in Mastomys under irreversible gastric acid suppression. Format: in vivo. Particulars: Mastomys 6-9 months, treated 30 days, Loxtidine 1 mg/L in drinking water. From the text:
This animal has been extensively studied as a model of gastric acid pathophysiology relevant to long-term pharmacological inhibition of acid secretion (low acid state pathobiology). […] Such treatment therefore results in an achlorhydric and hypergastrinemic animal model.

Another test deals with Mastomys femur. Put plainly: Bone histomorphometry (TRAP-positive osteoclasts) in loxtidine-treated Mastomys. It is filed as in vivo. How it is done:
In one aspect, the changes in loxtidine-treated animals reflect loss of bone mineralization and increased resorption—features consistent with osteoporotic phenotypes. BM=bone mineralization, RC=resorption cavity.
Animals (females) 4-6 months old were treated with Loxtidine for 60 or 120 days. Age- and sex-matched untreated animals provided a control group.
Thereafter, bone histomorphometry was examined. […] Evidence of osteoid seams and osteomalacia was also noted (FIG. 21).

In test [6] the target is gastrin/CCK2 receptor (human, on isolated PTH chief cells and on the MTC-SK cell line) (human) (UniProt P32239). In words: cell-based or functional assay.
For test [7] the following is noted: 0.02-4 U/min, young anesthetized pigs; cited from earlier work.
Test [8] concerns the target T2, calcitonin receptor on G cells.
T2 sequence (P30988 whole entry, species assumed, looked up): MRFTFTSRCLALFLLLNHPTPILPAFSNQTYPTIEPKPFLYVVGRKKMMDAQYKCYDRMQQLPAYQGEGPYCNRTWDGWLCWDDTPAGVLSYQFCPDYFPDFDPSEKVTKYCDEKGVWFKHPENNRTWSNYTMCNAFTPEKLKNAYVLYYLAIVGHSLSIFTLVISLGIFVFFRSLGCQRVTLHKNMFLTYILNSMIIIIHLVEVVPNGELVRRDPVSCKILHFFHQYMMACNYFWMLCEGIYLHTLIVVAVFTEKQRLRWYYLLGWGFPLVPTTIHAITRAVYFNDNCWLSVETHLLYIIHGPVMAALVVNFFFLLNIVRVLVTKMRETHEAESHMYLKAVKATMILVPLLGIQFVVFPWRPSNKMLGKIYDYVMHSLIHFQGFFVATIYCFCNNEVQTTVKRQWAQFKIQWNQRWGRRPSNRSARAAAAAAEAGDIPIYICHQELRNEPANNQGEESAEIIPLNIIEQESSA
Put plainly: cell-based or functional assay.

A further test deals with PTH receptor on G cells. Put plainly: cell-based or functional assay.
Setting [9] is: H-89 10 μM preincubation 10 mins.

Like-named read-outs stand apart in the source and are kept apart here. Ends that are not written are not given here.

For `C[C@]12CC[C@@H]3c4ccc(O)cc4CC[C@H]3[C@@H]1CC[C@@H]2O` [17β-estradiol], the “inhibition of gastrin release” value with isolated G cells [1] is given as about 20%. Further, the IC50 in the test with isolated G cells [1] (read-out: IC50, inhibition of gastrin release) is 4.6 pM; in the test on isolated G cells [2] (read-out: IC50, inhibition of cAMP synthesis), 0.0011 nM. In addition, the “inhibition of cAMP production” value with isolated G cells [2] is on record as −15%. Also, the “inhibition of MAPK phosphorylation” value in test [3] was found to be 75%.
`[Ca+2].[Cl-].[Cl-]` [CaCl2]: the “stimulation of gastrin release” value with isolated G cells [1] (isolated G cells) amounted to 8 fold. In addition, the results for the EC50 in the test with isolated G cells [1] (isolated G cells), in the test on isolated rodent G cells (Low acid G-cells) and in the test with isolated rodent G cells (Normal G-cells) were 4100 µM, 10000 µM and 4000 µM, respectively. Moreover, in the test with isolated G cells [2], the “cAMP production during calcium-mediated gastrin secretion” value is on record as “not associated with cAMP production”. Moreover, the “calcium influx (FITC shift rightwards)” value in the test on G cells is listed as over 5 fold.
Consider `CC(C)C[C@H](NC(=O)[C@H](CCCCN)NC(=O)CNC(=O)[C@H](CC(C)C)NC(=O)[C@@H](NC(=O)[C@@H]1CSSC[C@H](N)C(=O)N[C@@H](CO)C(=O)N[C@@H](CC(N)=O)C(=O)N[C@@H](CC(C)C)C(=O)N[C@@H](CO)C(=O)N[C@@H]([C@@H](C)O)C(=O)N1)C(C)C)C(=O)N[C@@H](CO)C(=O)N[C@@H](CCC(N)=O)C(=O)N[C@@H](CCC(=O)O)C(=O)N[C@@H](CC(C)C)C(=O)N[C@@H](Cc1c[nH]cn1)C(=O)N[C@@H](CCCCN)C(=O)N[C@@H](CC(C)C)C(=O)N[C@@H](CCC(N)=O)C(=O)N[C@H](C(=O)N[C@@H](Cc1ccc(O)cc1)C(=O)N1CCC[C@H]1C(=O)N[C@@H](CCCNC(=N)N)C(=O)N[C@H](C(=O)N[C@@H](CC(N)=O)C(=O)N[C@H](C(=O)NCC(=O)N[C@@H](CO)C(=O)NCC(=O)N[C@H](C(=O)N1CCC[C@H]1C(N)=O)[C@@H](C)O)[C@@H](C)O)[C@@H](C)O)[C@@H](C)O` [Calcitonin], for which the “inhibition of gastrin release” value in the test with isolated G cells [1] is reported as about 20%. Further, the “inhibition of cAMP production” value with isolated G cells [2] is recorded as 20%. The IC50 with isolated G cells [2] (read-out: I50, inhibition of cAMP production) is 3.8 nM.
Take `CSCC[C@H](NC(=O)[C@H](Cc1c[nH]c2ccccc12)NC(=O)CNC(=O)[C@H](Cc1ccc(O)cc1)NC(=O)[C@H](C)NC(=O)[C@H](CCC(=O)O)NC(=O)[C@H](CCC(=O)O)NC(=O)[C@H](CCC(=O)O)NC(=O)[C@H](CCC(=O)O)NC(=O)[C@H](CCC(=O)O)NC(=O)[C@H](CC(C)C)NC(=O)[C@H](Cc1c[nH]c2ccccc12)NC(=O)[C@@H]1CCCN1C(=O)CNC(=O)[C@@H]1CCC(=O)N1)C(=O)N[C@@H](CC(=O)O)C(=O)N[C@@H](Cc1ccccc1)C(N)=O` [Gastrin]: the EC50 in the test on PTH chief cells turned out to be 0.00042 µM.
Turning to `O=S(=O)(NCCNC/C=C/c1ccc(Br)cc1)c1cccc2cnccc12` [H-89], in the test on isolated G cells [2] (setting [9]), the “effect on PTH-stimulated cAMP production” value is on record as “reversed”. Further, on CCK2 receptor, the “effect on gastrin-stimulated cAMP production” value is reported as “inhibited” and the “effect on gastrin-stimulated calcitonin gene transcription” value is reported as “reversed”. In addition, the “effect on calcitonin inhibition of gastrin release” value with isolated G cells [4] (H-89 10 μM preincubation) is on record as “reversed”. In addition, the “effect on PTH-stimulated gastrin release” value with isolated G cells [4] (setting [9]) is recorded as “inhibited”. Besides, the “effect on CaCl2-mediated gastrin release” value with isolated G cells [4] is listed as “could not be inhibited”.
Molecule `Cn1nc(CO)nc1NCCCOc1cccc(CN2CCCCC2)c1` [Loxtidine] returned a plasma gastrin levels in [5] of 104 ± 23 pg/mL. The “numbers of TRAP-positive osteoclasts” value was 15±6 with Mastomys femur (8-week treated Mastomys) and 16±4.5 in the test with Mastomys femur (16-week treated Mastomys).
`C[C@@H](O)[C@@H]1NC(=O)[C@H](CCCCN)NC(=O)[C@@H](Cc2c[nH]c3ccccc23)NC(=O)[C@H](Cc2ccccc2)NC(=O)[C@@H](NC(=O)[C@H](N)Cc2ccccc2)CSSC[C@@H](C(=O)N[C@H](CO)[C@@H](C)O)NC1=O` [OCTR, octreotide]: in the test with isolated rodent G cells, the “increase of IC50 in low acid versus normal G cells” value is listed as about 5 fold. Moreover, the IC50 in the test on isolated rodent G cells (Low acid G-cells) was 0.14 nM; with isolated rodent G cells (Normal G-cells), 0.028 nM.
With `COc1cccc(-c2cc(=O)c3ccccc3o2)c1N` [PD98059], the “effect on CaCl2-mediated gastrin release” value in the test with isolated G cells [4] was “could not be inhibited”.
Take PTH: parathyroid hormone: the “stimulation of gastrin release” value with isolated G cells [1] (isolated G cells) is about 8 fold. For the same molecule, the EC50 is 0.06 µM with isolated G cells [1] (estimated) and 0.004 µM in the test on isolated G cells [2] (read-out: E50, stimulation of cAMP production). Also, the “stimulation of cAMP production” value with isolated G cells [2] is 250%.
In test [6], gastrin (ligand) showed a PTH release from isolated human PTH chief cells of 420 pM, a PTH synthesis in isolated human PTH chief cells of 1 nM and a cAMP production in MTC-SK cells of 0.67 pM.
As to “synthetic human 1-34 PTH: synthetic human 1-34 parathyroid hormone used in cited pig studies (SVSEIQLMHNLGKHLNSMERVEWLRKKLQDVHNF; Parathyroid hormone; UniProt P01270 32-65, looked up, fragment)”, the “increase in gastrin release” value in [7] is reported as “approximately 10 fold”.
CGNLSTCMLGTYTQDFNKFHTFPQTAIGVGAP (ligand, UniProt P01258 85-116, looked up, species assumed, ends and bridges not checked; cysteine pairing not given here) [calcitonin]: in [8], the inhibition of cAMP production in isolated G cells came to 3.8 nM and the inhibition of gastrin release from isolated G cells is 1.9 nM.

B1: PTH (parathyroid hormone) (ligand, UniProt P01270 32-115, looked up, species assumed)
Parathyroid hormone: SVSEIQLMHNLGKHLNSMERVEWLRKKLQDVHNFVALGAPLAPRDAGSQRPRKKEDNVLVESHEKSLGEADKADVNVLTKAKSQ
modifications: Parathyroid hormone
For B1, in the test with PTH receptor on G cells, the cAMP production in isolated G cells was found to be 4 nM and the gastrin release from isolated G cells came out at 60 nM.

B2: native bovine PTH: native bovine parathyroid hormone used in cited pig studies (peptide, UniProt P01268 32-115, looked up)
Parathyroid hormone: AVSEIQFMHNLGKHLSSMERVEWLRKKLQDVHNFVALGASIAYRDGSSQRPRKKEDNVLVESHQKSLGEADKADVDVLIKAKPQ
modifications: Parathyroid hormone
notes: native bovine parathyroid hormone used in cited pig studies
For B2, in test [7], the “increase in gastrin release” value is on record as “approximately 10 fold”.

The record behind these values is patent US10709714B2 (CL BioSciences LLC, priority 2013, dated 2020).
